# Assay results reported in patent US11590139B2, “Substituted aminopurine compounds, compositions thereof, and methods of treatment therewith” (Signal Pharmaceuticals, LLC, priority 2014, dated 2023).
# Test system: Lox-IMVI melanoma cell line
# Assay: Lox-IMVI anti-proliferative assay (growth inhibition, Cell Titer-Glo)
# Type: cell-based, human
# Conditions: Homo sapiens; IC50 activity level in the cell-based Lox-IMVI anti-proliferative assay; read-out: Activity
# In short: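 IC50 values reflect the concentration giving 50% of DMSO-control luminescence after 72 h of treatment, fitted with a four-parameter logistic model. Cells were cultured in RPMI + 10% FBS with compound from 0.5 nM to 10 μM.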
row,SMILES,IC50
1,"C[C@@H](CO)Nc1ncc2nc(Nc3c(Cl)cc(C#N)cc3Cl)n([C@H]3CC[C@@H](C(N)=O)CC3)c2n1 [Example 366, (1R,4s)-4-(8-(2,6-dichloro-4-cyanophenylamino)-2-((S)-1-hydroxypropan-2-ylamino)-9H-purin-9-yl)cyclohexanecarboxamide]",< 250 nM
2,"NC(=O)[C@H]1CC[C@@H](n2c(Nc3cc(F)c(Cl)cc3F)nc3cnc(N[C@@H]4CCC[C@H](O)C4)nc32)CC1 [Example 363, (1S,4s)-4-(8-(4-chloro-2,5-difluorophenylamino)-2-((1R,3S)-3-hydroxycyclohexylamino)-9H-purin-9-yl)cyclohexanecarboxamide]",> 1000 nM
3,"NC(=O)[C@H]1CC[C@@H](n2c(Nc3c(F)cccc3F)nc3cnc(NC4CCC(F)(F)CC4)nc32)CC1 [Example 289, (1s,4s)-4-(2-(4,4-difluorocyclohexylamino)-8-(2,6-difluorophenylamino)-9H-purin-9-yl)cyclohexanecarboxamide]",> 1000 nM

# Results, then the compound that gave them:
row,IC50,SMILES
1,500 to 1000 nM,"NC(=O)[C@H]1CC[C@@H](n2c(Nc3c(F)ccc(Cl)c3F)nc3cnc(NC4CCC(F)(F)CC4)nc32)CC1 [Example 291, (1s,4s)-4-(8-(3-chloro-2,6-difluorophenylamino)-2-(4,4-difluorocyclohexylamino)-9H-purin-9-yl)cyclohexanecarboxamide]"
2,500 to 1000 nM,"Cc1cc(Cl)c(Nc2nc3cnc(NC4CCOCC4)nc3n2[C@H]2CC[C@@H](C(N)=O)CC2)cc1Cl [Example 80, (1s,4s)-4-(8-(2,5-dichloro-4-methylphenylamino)-2-(tetrahydro-2H-pyran-4-ylamino)-9H-purin-9-yl)cyclohexanecarboxamide]"
3,> 1000 nM,"NC(=O)[C@H]1CC[C@@H](n2c(Nc3c(F)cccc3F)nc3cnc(N[C@H]4CC[C@H](O)C4)nc32)CC1 [Example 326, (1R,4s)-4-(8-(2,6-difluorophenylamino)-2-((1S,3S)-3-hydroxycyclopentylamino)-9H-purin-9-yl)cyclohexanecarboxamide]"
4,> 1000 nM,"NC(=O)[C@H]1CC[C@@H](n2c(Nc3c(F)cc(F)cc3Cl)nc3cnc(N[C@H]4C[C@H](O)C4)nc32)CC1 [Example 282, (1s,4s)-4-(8-(2-chloro-4,6-difluorophenylamino)-2-((1R,3r)-3-hydroxycyclobutylamino)-9H-purin-9-yl)cyclohexanecarboxamide]"
5,> 1000 nM,"NC(=O)[C@H]1CC[C@@H](n2c(Nc3c(F)cccc3F)nc3cnc(N[C@@H]4CCC[C@H]4O)nc32)CC1 [Example 251, (1S,4s)-4-(8-(2,6-difluorophenylamino)-2-((1R,2R)-2-hydroxycyclopentylamino)-9H-purin-9-yl)cyclohexanecarboxamide]"
6,< 250 nM,"NC(=O)[C@H]1CC[C@@H](n2c(Nc3c(Cl)cc(Cl)cc3Cl)nc3cnc(N[C@H]4CCOC[C@H]4F)nc32)CC1 [Example 303, (1R,4s)-4-(2-((3S,4S)-3-fluorotetrahydro-2H-pyran-4-ylamino)-8-(2,4,6-trichlorophenylamino)-9H-purin-9-yl)cyclohexanecarboxamide]"
7,> 1000 nM,"NC(=O)[C@H]1CC[C@@H](n2c(Nc3ccc(Cl)c(F)c3F)nc3cnc(N[C@H]4CCC[C@@H](O)C4)nc32)CC1 [Example 375, (1R,4s)-4-(8-(4-chloro-2,3-difluorophenylamino)-2-((1S,3R)-3-hydroxycyclohexylamino)-9H-purin-9-yl)cyclohexanecarboxamide]"

# Same assay, conditions: Homo sapiens; Lox-IMVI anti-proliferative assay, IC50 activity level; read-out: Activity
row,SMILES,IC50
1,"NC(=O)[C@H]1CC[C@@H](n2c(Nc3c(Cl)cc(Cl)cc3Cl)nc3cnc(N[C@H]4CCC[C@H](O)C4)nc32)CC1 [Example 461, (1R,4s)-4-(2-((1S,3S)-3-hydroxycyclohexylamino)-8-(2,4,6-trichlorophenylamino)-9H-purin-9-yl)cyclohexanecarboxamide]",> 1000 nM
2,"NC(=O)[C@H]1CC[C@@H](n2c(Nc3cc(F)c(Cl)cc3F)nc3cnc(N[C@H]4CCC[C@H](O)C4)nc32)CC1 [Example 465, (1R,4s)-4-(8-(4-chloro-2,5-difluorophenylamino)-2-((1S,3S)-3-hydroxycyclohexylamino)-9H-purin-9-yl)cyclohexanecarboxamide]",> 1000 nM
3,"C[C@]1(C(N)=O)CC[C@H](n2c(Nc3c(F)cc(Cl)cc3F)nc3cnc(NC4CCOCC4)nc32)CC1 [Example 473, (1r,4r)-4-(8-(4-chloro-2,6-difluorophenylamino)-2-(tetrahydro-2H-pyran-4-ylamino)-9H-purin-9-yl)-1-methylcyclohexanecarboxamide]",> 1000 nM
4,"C[C@H]1COCC[C@@H]1Nc1ncc2nc(Nc3c(F)cc(F)cc3F)n([C@H]3CC[C@@H](C(N)=O)CC3)c2n1 [Example 510, (1R,4s)-4-(2-((3R,4S)-3-methyltetrahydro-2H-pyran-4-ylamino)-8-(2,4,6-trifluorophenylamino)-9H-purin-9-yl)cyclohexanecarboxamide]",> 1000 nM

# More lines, now with the values ahead:
row,IC50,SMILES
1,> 1000 nM,"NC(=O)[C@H]1CC[C@@H](n2c(Nc3c(F)cc(F)cc3F)nc3cnc(N[C@H]4CCCC[C@H]4O)nc32)CC1 [Example 512, (1R,4s)-4-(2-((1S,2R)-2-hydroxycyclohexylamino)-8-(2,4,6-trifluorophenylamino)-9H-purin-9-yl)cyclohexanecarboxamide]"
2,> 1000 nM,"C[C@]1(C(N)=O)CC[C@@H](n2c(Nc3c(Cl)cc(C(F)(F)F)cc3Cl)nc3cnc(NC4CC(F)(F)C4)nc32)CC1 [Example 584, (1s,4s)-4-(8-(2,6-dichloro-4-(trifluoromethyl)phenylamino)-2-(3,3-difluorocyclobutylamino)-9H-purin-9-yl)-1-methylcyclohexanecarboxamide]"

# Same assay, conditions: Homo sapiens; Lox-IMVI melanoma cell line, anti-proliferative assay; read-out: Activity (IC50 activity level)
row,SMILES,IC50
1,"C[C@]1(C(N)=O)CC[C@@H](n2c(Nc3c(Cl)cc(F)cc3Cl)nc3cnc(N[C@H]4CCC[C@@H](O)C4)nc32)CC1 [Example 631, (1R,4s)-4-(8-(2,6-dichloro-4-fluorophenylamino)-2-((1S,3R)-3-hydroxycyclohexylamino)-9H-purin-9-yl)-1-methylcyclohexanecarboxamide]",500 to 1000 nM
2,"N#Cc1cc(F)c(Nc2nc3cnc(N[C@@H]4CCC[C@@H](O)C4)nc3n2[C@H]2CC[C@@H](C(N)=O)CC2)c(Cl)c1 [Example 685, (1S,4s)-4-(8-(2-chloro-4-cyano-6-fluorophenylamino)-2-((1R,3R)-3-hydroxycyclohexylamino)-9H-purin-9-yl)cyclohexanecarboxamide]",500 to 1000 nM
3,"N#Cc1cc(Cl)c(Nc2nc3cnc(N[C@@H]4CCC(F)(F)C4)nc3n2[C@H]2CC[C@@H](C(N)=O)CC2)c(Cl)c1 [Example 699, (1S,4s)-4-(8-(2,6-dichloro-4-cyanophenylamino)-2-((R)-3,3-difluorocyclopentylamino)-9H-purin-9-yl)cyclohexanecarboxamide]",250 to 500 nM
4,"C[C@]1(C(N)=O)CC[C@@H](n2c(Nc3c(F)cc(Cl)cc3F)nc3cnc(N[C@H]4CCC[C@H](O)C4)nc32)CC1 [Example 614, (1R,4s)-4-(8-(4-chloro-2,6-difluorophenylamino)-2-((1S,3S)-3-hydroxycyclohexylamino)-9H-purin-9-yl)-1-methylcyclohexanecarboxamide]",< 250 nM

# The next lines start with the values.
row,IC50,SMILES
1,> 1000 nM,"N#Cc1cc(F)c(Nc2nc3cnc(N[C@@H]4CCCN(c5ccccc5)C4)nc3n2[C@H]2CC[C@@H](C(N)=O)CC2)c(F)c1 [Example 745, (1S,4s)-4-(8-(4-cyano-2,6-difluorophenylamino)-2-((R)-1-phenylpiperidin-3-ylamino)-9H-purin-9-yl)cyclohexanecarboxamide]"
2,> 1000 nM,"NC(=O)[C@H]1CC[C@@H](n2c(Nc3c(F)cc(Cl)cc3Cl)nc3cnc(NC[C@@H]4CCCC[C@@H]4O)nc32)CC1 [Example 655, (1R,4s)-4-(8-(2,4-dichloro-6-fluorophenylamino)-2-(((1S,2S)-2-hydroxycyclohexyl)methylamino)-9H-purin-9-yl)cyclohexanecarboxamide]"
3,> 1000 nM,"Cc1ccc(S(=O)(=O)N2CCC[C@@H](Nc3ncc4nc(Nc5c(F)cc(Cl)cc5Cl)n([C@H]5CC[C@@H](C(N)=O)CC5)c4n3)C2)cc1 [Example 793, (1S,4s)-4-(8-(2,4-dichloro-6-fluorophenylamino)-2-((R)-1-tosylpiperidin-3-ylamino)-9H-purin-9-yl)cyclohexanecarboxamide]"
4,< 250 nM,"C[C@]1(C(N)=O)CC[C@@H](n2c(Nc3c(Cl)cc(F)cc3Cl)nc3cnc(NC4CCOCC4)nc32)CC1 [Example 675, (1s,4s)-4-(8-(2,6-dichloro-4-fluorophenylamino)-2-(tetrahydro-2H-pyran-4-ylamino)-9H-purin-9-yl)-1-methylcyclohexanecarboxamide]"
5,< 250 nM,"C[C@]1(C(N)=O)CC[C@@H](n2c(Nc3c(F)cc(F)cc3Cl)nc3cnc(N[C@H]4CCOC[C@H]4F)nc32)CC1 [Example 724, (1R,4s)-4-(8-(2-chloro-4,6-difluorophenylamino)-2-((3S,4S)-3-fluorotetrahydro-2H-pyran-4-ylamino)-9H-purin-9-yl)-1-methylcyclohexanecarboxamide]"
6,> 1000 nM,"C[C@]1(C(N)=O)CC[C@@H](n2c(Nc3c(F)cc(F)cc3F)nc3cnc(N[C@H]4CCC[C@@H](O)C4)nc32)CC1 [Example 625, (1R,4s)-4-(2-((1S,3R)-3-hydroxycyclohexylamino)-8-(2,4,6-trifluorophenylamino)-9H-purin-9-yl)-1-methylcyclohexanecarboxamide]"
7,> 1000 nM,"NC(=O)[C@H]1CC[C@@H](n2c(Nc3c(F)cc(F)cc3Cl)nc3cnc(N[C@@H]4CCCN(C(=O)Nc5ccccc5)C4)nc32)CC1 [Example 778, (R)-3-(9-((1s,4S)-4-carbamoylcyclohexyl)-8-(2-chloro-4,6-difluorophenylamino)-9H-purin-2-ylamino)-N-phenylpiperidine-1-carboxamide]"
8,250 to 500 nM,"C[C@]1(C(N)=O)CC[C@@H](n2c(Nc3c(F)cc(F)cc3Cl)nc3cnc(N[C@H]4CCC[C@H](O)C4)nc32)CC1 [Example 610, (1R,4s)-4-(8-(2-chloro-4,6-difluorophenylamino)-2-((1S,3S)-3-hydroxycyclohexylamino)-9H-purin-9-yl)-1-methylcyclohexanecarboxamide]"
